Source: patent publication US20120070493A1, “TARGETED MULTI-EPITOPE DOSAGE FORMS FOR INDUCTION OF AN IMMUNE RESPONSE TO ANTIGENS” (Selecta Biosciences, Inc., priority 2010, published 2012)
Square brackets hold non-standard residues; d marks the D form. Ends that are not written are not given here.

Legend:
[1] = system: CD4+/CD45RAlow/CD62Lhigh central memory T-cells (human PBMC); assay type: cell-based; conditions: for memory T-cell recall response, influenza epitopes: 5 PBMC donors, FIG. 14; for response of individual peptides and of heterodimeric peptides lacking a cathepsin cleavage site, compared with the response to this peptide: 4 donors, the comparators were the weaker ones, not the labelled peptide
[2] = system: MHC Class II (HLADP, HLADQ and HLADR alleles); conditions: previously described peptide, Virology 326 (2004) 220-230; cited from earlier work
[3] = system: CD4+/CD45RAlow/CD62Lhigh central memory T-cells; test: dendritic cell/CD4 T-cell co-culture, multi-color intracellular cytokine analysis; assay type: cell-based, human; conditions: for IFN-γ expression in peptide specific central memory T-cells / IL-4 expression in peptide specific central memory T-cells / TNF-α expression in peptide specific central memory T-cells: DC/CD4 co-culture with or without peptide, FIGS. 7 and 8; for co-expression of TNF-α and IFN-γ / co-expression of TNF-α and IL-4: multiple color flow cytometry, FIG. 9
Experimental: Early central memory T-cells express multiple cytokines (IL-2, TNF-α, IFN-γ) when re-activated with specific peptides, whereas committed effector memory T-cells are thought to selectively express IL-4 for TH2 committed effector memory, and IFN-γ for TH1 committed effector memory. The status of peptide activated memory T-cells was tested using multi-color intracellular cytokine analysis of dendritic cell/CD4 cell co-cultures.
Human peripheral blood monocytes were isolated using negative-selection magnetic beads (Dynal) and cultured in the presence of GM-CSF and IL-4 for 1 week in order to induce differentiation into dendritic cells. Allogeneic CD4 T cells were isolated using magnetic bead separation (Dynal) and co-cultured in the presence of DCs in the presence or absence of peptide. The protocol for stimulation and analysis from that point is identical to that for PBMC described above in Example 2.

human PBMC = test: interferon gamma Elispot, peptide-stimulated PBMC; assay type: cell-based; conditions: 10 μM peptide; for memory T-cell response (IFN-γ Elispot spots, normalized to non-stimulated controls): 18 hours, 5 donors, FIG. 22; for number of donors showing a recall: out of 5 donors
Experimental: The potency of single epitopes and chimeric epitopes have been evaluated by stimulating human PBMC with peptides in vitro for 18 hours and then analyzing the cells by Elispot. Briefly, whole blood was obtained from Research Blood Components (Cambridge). Blood was diluted in phosphate buffered saline (PBS) and then overlaid on top of Ficoll-paque premium (GE Healthcare) in a 50 mL tube. Tubes were spun for 30 minutes, and the transition phase PBMCs collected, diluted in PBS with 10% fetal calf serum (FCS) and spun for 10 minutes. Cells were resuspended in cell freezing media (Sigma) and immediately frozen at −80 C overnight. For long term storage, cells were transferred to liquid nitrogen. Cells were thawed as needed and resuspended in PBS 10% FCS, spun down and resuspended to 1×10^7 cells/mL in culture media (RPMI [cellgro]), supplemented with 10% heat inactivated fetal calf serum (Sigma) l-glutamine, penicillin and streptomycin).
The Elispot assay was performed using an interferon gamma Elispot kit (Mabtech). Briefly the Elispot was performed by coating 96 well filter plates with an IFN-γ capture antibody, then blocked with complete culture media containing 10% FCS to prevent non-specific binding. PBMC (1×10^6 cells) were plated in the antibody pre-coated Elispot plates with or without 10 μM peptide. Positive control wells were stimulated with 10 μg/mL PHA. Elispot plates were incubated for 18 hours at 37° C. followed by coating with biotinylated anti-IFN-γ secondary antibody for 2 hours at room temperature. Elispot plates were then washed and IFN-γ spots developed using 3-amino-9-ethylcarbazole, dimethylformamide, and hydrogen peroxide in acetate buffer. IFN-γ positive Elispot counts were evaluated by an outside vendor (Zelnet) and the number of spots scored per 10 million cells.

With “CSQRSKFLLMDALKLkvsvrLIFLARSALILR [AAWkAAT]” the “memory T-cell recall response, influenza epitopes” value (from here on “memory T-cell recall response”) ([1]; 4 μM peptide) was “positive”.
For DFHFEVFNFVPCSI [RSVG162-175], the “Affinity (HLA Class II type bound)” value [2] is given as “(HLADP)”.
For EKIVLLFAIVSLVKSDQICI [ABW9], the “memory T-cell recall response” value ([1]; 4 μM peptide) was “not”.
In the case of “ILMQYIKANSKFIGI QSIALSSLMVAQTLLYVLFEV (ILMQYIKANSKFIGIQSIALSSLMVAQTLLYVLFEV) [TT830DTAdV]”, the “number of donors showing a recall response” value [1] was 4 donors.
With “ILMQYIKANSKFIGIPMGLPQSIALSSLMVAQ [TT830pmglpDTt]” the “effect of inclusion of a cathepsin cleavage site on the response, compared with TT830DTt” value ([1]; human PBMC, 4 μM peptide) was “enhanced the response”, the “recall activity compared with identical peptide without cleavage site (TT830DT)” value ([1]; human PBMC, 4 μM peptide) was “better than a peptide identical except without a cleavage site (TT830DT)” and the “recall activity compared with individual components TT830 and DT alone” value ([1]; human PBMC, 4 μM peptide) was “more active than its individual components (TT830 and DT) alone”. For the same substance, the “number of activated central memory T-cells (percent CD62L+/IFN-γ+ cells, normalized to non-stimulated)” value ([1]; human PBMC, 4 μM peptide, 20 donors, FIG. 5) was “highest response”, the “number of donors positive for memory T-cells responding to peptide” value ([1]; out of 20 donors, positive if greater than 0.08% responding central memory T-cells, FIG. 6) was 20/20 and the “IFN-γ expression in peptide specific central memory T-cells” value [3] was “increased expression”. The “IL-4 expression in peptide specific central memory T-cells” value [3] was “not IL-4”, the “TNF-α expression in peptide specific central memory T-cells” value [3] was “increased expression” and the “co-expression of TNF-α and IFN-γ” value [3] was “peptide induced co-expression”. The “co-expression of TNF-α and IL-4” value [3] was “not co-expression”.
With ILMQYIKANSKFIGIQSIALSSLMVAQ [TT830DTt] the “co-expression of TNF-α and IFN-γ” value [3] was “peptide induced co-expression” and the “co-expression of TNF-α and IL-4” value [3] was “not co-expression”.
With “ILMQYIKANSKFIGIQSIALSSLMVAQAIPLVGEL [TT830DT]” the “IFN-γ expression in peptide specific central memory T-cells” value [3] was “increased expression”, the “IL-4 expression in peptide specific central memory T-cells” value [3] was “not IL-4” and the “TNF-α expression in peptide specific central memory T-cells” value [3] was “increased expression”.
With “ILSIYSTVASSLALAIkvsvrLIFLARSALILR [ABW2kAAT]” the “memory T-cell recall response” value ([1]; 4 μM peptide) was “positive”.
In the case of “LIFLARSALILRkvsvrILSIYSTVASSLALAI [AATkABW2]”, the “memory T-cell recall response” value ([1]; 4 μM peptide) was “positive”.
In the case of “NAELLVALENQHTIkvsvrLIFLARSALILR (NAELLVALENQHTIKVSVRLIFLARSALILR) [3120tkAAT]”, the “memory T-cell recall response” value ([1]; 4 μM peptide) was “positive”.
For “TLLYVLFEVPMGLPILMQYIKANSKFIGI [AdVpTT830]”, the “effect of insertion of a cathepsin cleavage site on activity of the AdV epitope” value ([1]; human PBMC, 4 μM peptide) was “eliminated activity of the AdV epitope”.
For “TLLYVLFEVkvsvr NNFTVSFWLRVPKVSASHLET (TLLYVLFEV[dK][dV][dS][dV][dR]NNFTVSFWLRVPKVSASHLET) [AdVkTT950]”, the “response of individual peptides and of heterodimeric peptides lacking a cathepsin cleavage site, compared with the response to this peptide” value ([1]; 4 μM peptide) was “weaker response”.
In the case of “TLLYVLFEVkvsvrQSIALSSLMVAQ (TLLYVLFEV[dK][dV][dS][dV][dR]QSIALSSLMVAQ) [AdVkDTt]”, the “response of individual peptides and of heterodimeric peptides lacking a cathepsin cleavage site, compared with the response to this peptide” value ([1]; 4 μM peptide) was “weaker response”.
In the case of “VSTYMLTNSELLSLINDkvsvrAGFYHILNNPKASL [VSTkAGF]”, the “memory T-cell response (IFN-γ Elispot spots, normalized to non-stimulated controls)” value (human PBMC) was “highest memory T-cell response” and the “number of donors showing a recall” value (human PBMC) was 5 donors.
In the case of “VWLYNQIALQLKNHAkvsvrAGFYHILNNPKASL [VWLkAGF]”, the “memory T-cell response (IFN-γ Elispot spots, normalized to non-stimulated controls)” value (human PBMC) was “highest memory T-cell response” and the “number of donors showing a recall” value (human PBMC) was 5 donors.
